In patent publication US11279726B2, “Norbornene-based amphipathic compound and utilization thereof” (Industry-University Cooperation Foundation Hanyang …, priority 2017, dated 2022):

Columns and labels:
[1] = tested on: leucine transporter (LeuT); assay: LeuT stability: [3H]-Leu substrate binding by scintillation proximity assay (SPA); design: species or system Aquifex aeolicus; conditions: t=12 day, CMC+0.04 wt %, room temperature
Experimental: An experiment for measuring the stability of LeuT protein with NBMs was performed. Concentrations of individual amphiphilic compounds were (a) CMC+0.04 wt % and (b) CMC+0.2 wt %, and the stability of the LeuT protein was evaluated by measuring a LeuT substrate binding activity using [3H]-Leu via scintillation proximity assay (SPA). The measurement was performed at regular intervals during 12-day incubation at room temperature. Specifically, a wild-type leucine transporter (LeuT) derived from thermophilic bacteria Aquifex aeolicus was purified by the method described previously (G. Deckert et al., Nature 1998, 392, 353-358). LeuT was expressed in E. coli C41 (DE3) transformed with pET16b encoding C-terminally 8× His-tagged transporter (the expression plasmid was provided by Dr E. Gouaux, Vollum Institute, Portland, Oreg., USA). […] Protein samples were stored for 12 days at room temperature, and centrifuged at predetermined points of time, the substrate ([3H]-leucine)-binding activity of the transporter was determined via SPA by taking advantage of protein properties. […] Total [3H]-leucine binding for the respective samples was measured using a MicroBeta liquid scintillation counter (Perkin Elmer).

mBBr-β2AR = mBBr-β2AR (Homo sapiens, UniProt P07550); assay: Gs-protein coupling assay, bimane fluorescence of mBBr-β2AR; conditions: 0.1% amphiphile, 2 μM ISO, 250 nM Gs
Experimental: To investigate a protein function, the receptor was conjugated with a fluorophore (monobromobimane; mBBr). The mBBr-β2AR was used to monitor the conformational changes of the receptor in the presence of binding partners (isopreoterenol (ISO) and Gs-protein) through fluorescence measurement, and detailed experimental methods are as follows.
0.5 μl undispersed mBBr-labeled receptor at 50 μM in DDM was diluted with 500 μl 0.1% NBM or DDM-containing buffer, and incubated for 15 minutes at room temperature, thereby obtaining a receptor having a final concentration of 50 nM. 2 μM isoproterenol (ISO) was added and the resulting solution was further incubated for 15 minutes at room temperature. After addition of 250 nM Gs, the protein samples were further incubated at room temperature for 20 minutes. Bimane fluorescence was measured by excitation at 370 nm, and emission spectra were recorded from 430 nm to 510 nm in a unit of 1 nm increments with 0.5 nm/s integration on a Spex FluoroMax-3 spectrofluorometer (Jobin Yvon Inc.) in photon counting mode set at 4-nm emission bandwidth pass. The mBBr response in 0.1% DDM was used as a positive control.

β2AR / β2AR-Gs complex [2] = target: T1, β2AR / β2AR-Gs complex (Homo sapiens, UniProt P07550); assay: Size exclusion chromatography of β2AR and β2AR-Gs complex after amphiphile exchange; conditions: after amphiphile exchange, 20x CMC
T1 construct: Flag; made in house
Experimental: (§1) β2AR purified with 0.1 wt % DDM was loaded onto an M1 Flag column in the presence of 2 mM […], and the column was washed with a DDM or X-NBM-C11 buffer (20 mM HEPES pH 7.5, 100 mM NaCl, 0.2% respective amphiphile). The receptor was eluted in 20× CMC DDM or X-NBM-C11 containing 5 mM EDTA and 0.2 mg/ml free Flag peptide. The eluate was further applied to a superdex-200 10/300 GL column (GE healthcare) at 0.5 ml/min, and UV absorbance at 280 nm was recorded. The running buffer contained 20 mM HEPES pH 7.5, 100 mM NaCl, 20× CMC individual detergents (DDM and X-NBM-C11).
(§2) In addition, GPCR-Gs complex purified in DDM was replaced with X-NBM-C11 through amphiphilic molecule exchange, and sample aliquots were obtained at regular intervals in 21-day incubation at 4° C. to measure complex stability.

β2AR / β2AR-Gs complex [3] = assay: as above; design: species or system human; conditions: 21-day incubation at 4° C.
Experimental: as §1, §2

β2AR-Gs complex = β2AR-Gs complex (Homo sapiens, UniProt P07550); assay: Negative stain EM analysis of β2AR-Gs complex
Experimental: A β2AR-Gs protein complex was prepared for electron microscopy using the conventional negative staining protocol, and imaged at room temperature with a Tecnai T12 electron microscope operated at 120 kV using low-dose procedures. Images were recorded at a magnification of 71,138× and a defocus value of approximately 1.4μ using a Gatan US4000 CCD camera. All images were binned (2×2 pixels) to obtain a pixel size of 4.16 A at the specimen level. Particles were manually excised using e2boxer (part of the EMAN2 software suite). 2D reference-free alignment and classification of particle projections were performed using ISAC. 14,556 projections of β2AR-Gs were subjected to ISAC, producing 199 classes consistent over two-way matching and accounting for 10,100 particle projections.

Compound | LeuT substrate binding activity at the end of incubation [1] | Conformational change / function of mBBr-β2AR with ISO and Gs (mBBr-β2AR) | Size/homogeneity of β2AR protein-detergent complexes (SEC) (β2AR / β2AR-Gs complex [2]) | β2AR-Gs complex stability by SEC profiles (β2AR / β2AR-Gs complex [3]) | Particle dispersity of β2AR-Gs complex in negative stain EM (β2AR-Gs complex)
CCCCCCCCCCCOCC1C2CC([C@@H]1COCCCCCCCCCCC)[C@H](O[C@@H]1OC(CO)[C@@H](O[C@H]3OC(CO)[C@@H](O)C(O)C3O)C(O)C1O)C2O[C@@H]1OC(CO)[C@@H](O[C@H]2OC(CO)[C@@H](O)C(O)C2O)C(O)C1O (stereo partly drawn) [D-NBM-C11] | a little less than the initial activity of LeuT solubilized in DDM | – | – | – | –
CCCCCCCCCCCOCC1C2CC([C@H]1COCCCCCCCCCCC)[C@H](O[C@@H]1OC(CO)[C@@H](O[C@H]3OC(CO)[C@@H](O)C(O)C3O)C(O)C1O)C2O[C@@H]1OC(CO)[C@@H](O[C@H]2OC(CO)[C@@H](O)C(O)C2O)C(O)C1O (stereo partly drawn) [X-NBM-C11] | a little less than the initial activity of LeuT solubilized in DDM | retains an original protein function | homogeneous PDCs with the same size as that formed by DDM | perfectly maintained complex stability | highly mono-dispersed particles
